Test results: patent US20240000765A1, “COMBINATION TREATMENT OF LIVER DISORDERS” (Terns Pharmaceuticals, Inc., priority 2020, published 2024)

How the values were obtained:
mouse NASH model = test: Mouse NASH model (high fat diet + CCl4), Compound 2; format: in vivo, C57BL/6J mice
Method: C57BL/6J mice were fed a high fat diet for 10 weeks to induce obesity (>38 g BW). Obese mice were injected intraperitoneally (i.p.) twice a week for four weeks with 0.5 μl/g 25% CCl4 (formulated in olive oil) to induce fibrosis, and one group of normal BW mice were injected i.p. twice a week for four weeks with olive oil to serve as a healthy control. During the same dosing period, obese mice were fed orally once a day for 28 days with vehicle or varying doses of Compound 2. On CCl4 dosing days, CCl4 was administered at 4 hours post compound or vehicle dosing. On day 27, all animals were fasted for about 16 hours before terminal euthanasia. On day 28, all animals were sacrificed and various biological parameters were analyzed. Total body, liver, heart and brain weight were measured and changes in liver and heart weight were normalized using brain weight. […] Liver tissue histology was analyzed for effects of Compound 2 on steatosis, inflammation and fibrosis. […] Liver samples were collected for whole transcriptome analysis by RNA sequencing (RNAseq). RNAseq library (n=5 per group) preparation and sequencing was performed using Illumina standard protocols. Alignment of sequencing reads was performed using STAR aligner software and read counts were estimated using RSEM. Differentially expressed genes (compared to vehicle-treated NASH control mice) were determined using EdgeR software. Gene ontology analysis was performed using Advaita software with fold-change and adjusted p-value cutoffs of >1.5 and <0.05, respectively. Gene ontologies were derived from the Gene Ontology Consortium database (2019 Apr. 26) (Ashbumer et al., Gene ontology: Tool for the unification of biology. Nature Genetics 25(1): 25-9 (2000); Gene Ontology Consortium, Creating the Gene Ontology Resource: Design and Implementation. Genome Research 11: 1425-1433 (2001)).

THRα [1] = biological target: T1, THRα (Homo sapiens, UniProt P10827); test: Binding activity to THRα; conditions: read-out: IC50 THRα binding force
T1 sequence (P10827 1-410 isoform P10827-2): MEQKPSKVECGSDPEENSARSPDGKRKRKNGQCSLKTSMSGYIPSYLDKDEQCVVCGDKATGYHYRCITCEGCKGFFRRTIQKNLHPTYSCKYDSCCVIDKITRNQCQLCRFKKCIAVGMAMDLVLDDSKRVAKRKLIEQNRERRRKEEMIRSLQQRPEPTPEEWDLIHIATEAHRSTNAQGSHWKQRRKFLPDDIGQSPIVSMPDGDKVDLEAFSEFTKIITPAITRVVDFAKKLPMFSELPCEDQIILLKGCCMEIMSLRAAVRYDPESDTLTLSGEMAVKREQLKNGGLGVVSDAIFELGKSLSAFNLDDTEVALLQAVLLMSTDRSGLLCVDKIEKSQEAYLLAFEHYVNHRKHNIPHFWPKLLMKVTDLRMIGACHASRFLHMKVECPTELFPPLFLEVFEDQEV

THRα [2] = biological target: T1, THRα; test: Agonistic activity toward THRα; format: biochemical
THRβ = biological target: T2, THRβ (Homo sapiens, UniProt P10828); test: Binding activity to the thyroxine receptor beta; conditions: ratio of binding IC50
T2 sequence (P10828 1-461): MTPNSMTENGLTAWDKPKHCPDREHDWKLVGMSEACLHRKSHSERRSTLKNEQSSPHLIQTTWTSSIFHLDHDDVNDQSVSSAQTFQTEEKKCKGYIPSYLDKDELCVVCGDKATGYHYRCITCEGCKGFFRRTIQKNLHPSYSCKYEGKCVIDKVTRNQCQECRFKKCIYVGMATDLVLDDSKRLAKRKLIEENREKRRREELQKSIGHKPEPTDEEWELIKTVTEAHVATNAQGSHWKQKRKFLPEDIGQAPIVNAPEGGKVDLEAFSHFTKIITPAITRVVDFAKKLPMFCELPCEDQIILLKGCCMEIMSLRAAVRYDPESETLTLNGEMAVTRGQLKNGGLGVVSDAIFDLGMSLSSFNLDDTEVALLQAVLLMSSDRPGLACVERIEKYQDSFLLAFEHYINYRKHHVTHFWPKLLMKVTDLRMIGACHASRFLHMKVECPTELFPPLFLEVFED

[3] = Pharmacokinetic evaluation in rats, intragastric infusion; format: in vivo; conditions: SD rats, intragastric 2 mg/kg
Method: Drug Preparation: a certain amount of the drug was taken and added into a 2% Klucel LF+0.1% Tween 80 aqueous solution, to prepare a clear solution or a uniform suspension.
Dosage: SD rats were fasted overnight and given the drug by intragastric infusion at an administrated dose of 2 mg/kg and an administrated volume of 10 mL/kg each.
Operation: rats were dosed by intragastric infusion with the compounds. […] The heparinized sample tubes were then stored at −20° C., and the rats were allowed to eat food 2 h after the dosage.
Determination of contents of the compounds to be tested in the plasma of rats after intragastric infusion of the drugs at different concentrations: the plasma samples were thawed at room temperature, 50 μL each was taken and added into 130 μL of an internal standard working solution (1000 ng/mL, acetonitrile, tolbutamide), and the mixture was whirled for about 1 min and then centrifugated at 4° C. and 13000 rpm for 10 min. 50 μL of the supernatant was taken and mixed with 100 μL of 50% acetonitrile water, and then introduced for LC/MS/MS analysis.

N#Cc1nn(-c2cc(Cl)c(Oc3n[nH]c(=O)c4ccccc34)c(Cl)c2)c(=O)[nH]c1=O [Compound 2]
liver fibrosis (histology) (mouse NASH model; 3 and 10 mpk): significantly reduced | liver steatosis (histology) (mouse NASH model; all doses tested): significantly reduced | serum ALT (mouse NASH model; all doses tested): significantly reduced | serum total cholesterol (mouse NASH model; all doses tested): significantly reduced | serum triglycerides (mouse NASH model; all doses tested): significantly reduced | expression of genes associated with collagen extracellular matrix and hepatic stellate cell activation relative to NASH control (mouse NASH model; liver RNAseq): reducing their expression levels | heart/brain weight (mouse NASH model; oral once a day, 28 days): no effect | liver inflammation (histology) (mouse NASH model; oral once a day, 28 days): trend in inflammation reduction | liver/brain weight (mouse NASH model; oral once a day, 28 days): significantly reduced | total body weight (mouse NASH model; oral once a day, 28 days): no effect | IC50 (THRα [1]): > 10 µM | EC50 (THRα [2]): 3.98 µM | THRα/β selectivity (factor) (THRβ): >58.8 | Curve area [3]: 24790 ± 3704 ng·h/mL | Peak blood drug concentration [3]: 2007 ± 106 ng/mL | Time to peak [3]: 4.67 ± 1.15 h
